Experimental data from US5246830A, “Enzymatic process for the determination of β-lactam antibiotics” (Ucb Bioproducts, S.A., priority 1990, dated 1993).

Biological target: T1, enzyme R39 (soluble D-alanyl-D-alanine carboxypeptidase produced by Actinomadura R39) (Actinomadura sp. R39, UniProt P39045)
T1 construct: added to milk or serum samples
Test: Enzymatic determination of penicillin G in 3 ml milk samples (Example 3)
Type: biochemical
Details: for Coloration: 24 picomoles enzyme R39, 10 min + 5 min
Protocol: The process is the same as in Example 1, except that:
the samples contain 3 ml of milk (instead of 50 μl);
24 picomoles (instead of 1.5 picomole) of enzyme R39 dissolved in 150 μl of 0.5M Hepes buffer (pH=8.0) and 600 μl of an aqueous solution containing 100 mg/ml of D-alanine are added to each sample;
the first incubation lasts 10 minutes (instead of 4 minutes);
120 μl (instead of 5 μl) of the aqueous solution of [(N-benzoyl-D-alanyl)thio]-acetic acid and 120 μl of a phosphate buffer solution (pH=8.0) containing 5 mg/ml of 5,5'-dithiobis(2-nitrobenzoic) acid are then added, and
the second incubation lasts 5 minutes (instead of 1 minute).

T1 sequence (P39045 50-515): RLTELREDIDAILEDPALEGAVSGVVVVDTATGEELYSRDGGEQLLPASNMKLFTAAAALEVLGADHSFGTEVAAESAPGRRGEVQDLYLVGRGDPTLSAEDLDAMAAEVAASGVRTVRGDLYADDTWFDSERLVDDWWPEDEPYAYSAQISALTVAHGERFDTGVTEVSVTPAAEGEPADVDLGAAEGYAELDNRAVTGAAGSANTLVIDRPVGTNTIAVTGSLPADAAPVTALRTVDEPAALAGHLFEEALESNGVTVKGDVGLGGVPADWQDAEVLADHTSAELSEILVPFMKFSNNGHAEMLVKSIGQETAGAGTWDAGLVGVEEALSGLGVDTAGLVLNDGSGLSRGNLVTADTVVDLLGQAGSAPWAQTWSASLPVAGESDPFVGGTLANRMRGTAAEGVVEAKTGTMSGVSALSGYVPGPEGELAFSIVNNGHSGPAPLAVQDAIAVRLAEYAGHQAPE

## CC1(C)S[C@@H]2[C@H](NC(=O)Cc3ccccc3)C(=O)N2[C@H]1C(=O)O [penicillin G, benzyl penicillin (penicillin G)]
3 ml milk, in 15 minutes
  penicillin G concentration in milk detected visually in large sample volumes: 0.004 I.U. per ml
Penicillin G 0.002 I.U./ml in 3 ml milk
  Coloration: medium yellow
Penicillin G 0.003 I.U./ml in 3 ml milk
  Coloration: pale yellow
Penicillin G 0.004 I.U./ml in 3 ml milk
  Coloration: white
Penicillin G 0.006 I.U./ml in 3 ml milk
  Coloration: white
